Experiment [1] has as its system Mus musculus. Nature of the experiment: Antinociceptive effect in sc dosed Swiss mouse assessed as inhibition of acetic acid-induced visceral pain. In kind it is functional. The conditions noted are these: read-out: ID50 (the source's name).
Experiment [2] deals with Mus musculus. Nature of the experiment: Antinociceptive effect in Swiss mouse assessed as inhibition of acetic acid-induced visceral pain at 0.0001 to 30 mg/kg, ip relative to morphine. In kind it is functional. The conditions noted are these: dose mg/kg 0.0001-30; route intraperitoneal.

What is called Inhibition is the relative decrease from the control value, in per cent. With `CC(=O)Oc1ccccc1C(=O)O` [ASPIRIN], the ED50 in the experiment with Mus musculus [1] stood at 24 mg/kg. Besides, the Inhibition in the experiment on Mus musculus [2] was 83%.

Consider `CN1CC[C@]23c4c5ccc(O)c4O[C@H]2[C@@H](O)C=C[C@H]3[C@H]1C5` [MORPHINE], for which the ED50 in the experiment with Mus musculus [1] was found to be 0.67 mg/kg.

Source of the values: ChEMBL document CHEMBL1143894, “Synthetic derivatives of the alpha- and beta-amyrin triterpenes and their antinociceptive properties” (2008).
